The assay concerns THP-1 viability, CellTiter-Glo luminescence, 72 h. As to the kind of experiment: PubChem AID 2252.

This is an account of results in PubChem BioAssay AID2252 (Southern Research Specialized Biocontainment Screening …, 2010).

`COc1cccc(Nc2cc(C)nc3ccccc23)c1`: the EC50 (usually the concentration needed to bring the measured effect to its halfway point) was 30.5 µM.

Take `CC1CCCC(NC(=O)COC(=O)Cc2c[nH]c3ccccc23)C1C` (stereo unspecified): the EC50 was below 0.1 µM.

Take `Cc1ccc(NC2=C(Cl)C(=O)OC2OC(=O)c2ccco2)c(C)c1` (stereo unspecified): the concentration for a half-maximal effect (EC50) is 27.9 µM.

As to `NC(N)=N/N=C/c1ccc(OCc2ccccc2Cl)cc1`, the EC50 is 3.15 µM.

For the molecule `Cc1ccc2c(c1)C1CN(C)CCC1N2Sc1ccccc1[N+](=O)[O-]` (stereo unspecified), the EC50 was 21.1 µM.

As to `CC1CCC(C(C)C)C(OC(=O)Cn2c(-c3ccc(Cl)cc3)[n+](C)c3ccccc32)C1` (stereo unspecified), the EC50 is 2.22 µM.

Regarding `N#C/C(=C\c1ccc(O)c(O)c1)C(=O)NCc1ccccc1`, the concentration giving a half-maximal response (EC50) was 27.1 µM.

Turning to `CCN(CC)CCOC(=O)c1ccc(N/C=C(/C#N)c2nc(-c3ccc(OC)c(OC)c3)cs2)cc1`, the EC50 was 13.5 µM.

As to `CCOc1ccc(N2C(=O)CN(O)C=C3N=c4ccccc4=C32)cc1`, the EC50 is 39.3 µM.

As to `CN(C)CCNC(=O)c1ccc(COc2ccc(Cl)cc2Cl)cc1`, the EC50 is 13.8 µM.

Regarding `NC1=NC[C@H](c2ccccc2)N1CCCCC1CCCCC1`, the EC50 was 6.36 µM.

For `COc1ccc2nc(Nc3ccccc3)sc2c1`, the 50% effective concentration (EC50) was below 0.1 µM.

On to `C#CCOCCOCCOCCNc1nc(N2CCN(C(=O)CCCCCCCCCCNC(=O)Cn3cc(CCCCCN)nn3)CC2)nc(N2CCN(C(=O)CCCCCCCCCCNC(=O)[C@@H]([C@H](C)O)n3cc(C)nn3)CC2)n1`, for which the EC50 was below 0.1 µM.

Consider `O=C(Nc1nnc(-c2ccco2)o1)c1cccc(Cl)c1`, for which the 50% effective concentration (EC50) is 21.1 µM.

For `COC(=O)C1C(O)C(C)C(O)C(C)(O)/C=C\C=C(/C)C(=O)Nc2c(C)c(OC(C)=O)c3c(c2O)C(=O)C(C)=C2OCOC(=C23)/C(C)=C/C(C)(O)C(O)C(C)C1O` (stereo unspecified), the EC50 is below 0.1 µM.

Regarding `CCc1cccc(NC(=O)CSC2=NS(=O)(=O)c3ccccc32)c1`, the 50% effective concentration (EC50) was 15.6 µM.

Take `Cc1ccc2oc(=O)c(/C=C(\O)c3ccccc3)nc2c1`: the half-maximal effective concentration (EC50) is below 0.1 µM.

Regarding `CC(C)N1CSC(=S)N(Cc2ccccc2)C1`, the EC50 is 12.8 µM.

With `CN(CC(=O)Nc1ccc(F)c(F)c1F)c1cnccn1`, the EC50 is 19.6 µM.

In the case of `COc1ccc(C(=O)Nc2cc3c(cc2OC)CCCC3)cc1Br`, the concentration giving a half-maximal response (EC50) was below 0.1 µM.

For `CCc1ccc(-c2nn(-c3ccccc3)cc2CSC(=N)N)cc1`, the EC50 is 5.18 µM.

As for `CC(Nc1nc(N2CCCCC2)nc2ccccc12)c1ccccc1` (stereo unspecified), the EC50 was 7.12 µM.

Take `CN(C)CCCNc1cc(C(C)(C)C)nc2c(-c3ccccc3)cnn12`: the EC50 is 6.48 µM.

Turning to `O=C(CCN1CCOCC1)N/N=C/c1cc(Br)cc(Br)c1O`, the concentration for a half-maximal effect (EC50) is 24.8 µM.

With `CCN1CCN(CCNC(=O)c2ccc3c(c2)N(Cc2ccc(F)cc2)C(=O)/C(=C/c2ccccc2)S3)CC1`, the 50% effective concentration (EC50) was 9.43 µM.

Take `CS(=O)(=O)c1ccc2nc(NC(=O)c3ccc(Cl)nc3)sc2c1`: the EC50 was 46.2 µM.

On to `S=C(NCc1ccc(Cl)cc1)Nc1ccncc1`, for which the concentration for a half-maximal effect (EC50) was 40.1 µM.

On to `Cn1c(-c2ccc3c(c2)OCO3)cnc1NCc1ccc(Cl)cc1`, for which the EC50 was 28.8 µM.

For the molecule `CN(C)CCCN(C(=O)c1ccc2c(c1)CCCC2)c1nc2ccc(Cl)cc2s1`, the 50% effective concentration (EC50) is 9.82 µM.

With `Cc1[nH]nc2c1C(c1ccc(-c3ccccc3C#N)o1)C(C#N)=C(N)O2` (stereo unspecified), the EC50 was 30.6 µM.

On to `CC(=O)NCc1ccc(C(=O)CCl)cc1`, for which the concentration for a half-maximal effect (EC50) was 33.3 µM.

In the case of `CCSc1ccc2c(c1)N(CCCN1CCN(C)CC1)c1ccccc1S2`, the EC50 was 12.8 µM.

As to `c1ccc(CNc2nc(-c3ccccn3)nc3ccccc23)cc1`, the half-maximal effective concentration (EC50) was 1.72 µM.

For the molecule `c1ccc(CN2CCN(c3ncnc4c3[nH]c3ccccc34)CC2)cc1`, the EC50 is 20 µM.

For `Cc1ccc(-c2ccccc2NC(=O)CS(=O)CC(=O)Nc2ccc(C)c(Cl)c2)o1` (stereo unspecified), the concentration for a half-maximal effect (EC50) was 32.2 µM.

Consider `Clc1ccc(CONc2ncnc3nonc23)c(Cl)c1`, for which the EC50 was 47.7 µM.

For the molecule `C=CCn1c(NS(=O)(=O)c2ccccc2)c(S(=O)(=O)c2ccc(C)cc2)c2nc3ccccc3nc21`, the half-maximal effective concentration (EC50) was 40.9 µM.

Take `Oc1ccc(CN2CCN(c3ccccc3)CC2)c2cccnc12`: the half-maximal effective concentration (EC50) is 5.88 µM.

With `CN1CC(C(=O)c2ccc(Cl)cc2)C(c2ccc(Cl)cc2Cl)C1` (stereo unspecified), the concentration giving a half-maximal response (EC50) is 27.5 µM.

Turning to `[O-][n+]1cccc2c(Br)cc(Br)c(O)c21`, the EC50 was 24.4 µM.

In the case of `Clc1ccc(OCCCNCc2ccccc2)c2ccccc12`, the 50% effective concentration (EC50) is 23.4 µM.

With `Oc1ccc(CN2CCN(Cc3ccccc3)CC2)c2cccnc12`, the 50% effective concentration (EC50) was 9.96 µM.

Turning to `CCOC(=O)c1c(C)sc2c1N(C(C)=O)c1cc(Cl)ccc1S2`, the concentration giving a half-maximal response (EC50) was 44.1 µM.

On to `CCCCCCCSc1cc(OC)c(CCN(C)C)cc1OC`, for which the concentration giving a half-maximal response (EC50) was 9.51 µM.

Take `COc1cc(CNc2ccc(N3CCN(C(C)=O)CC3)cc2)ccc1OCc1ccccc1`: the concentration giving a half-maximal response (EC50) was 6.5 µM.

`OCCCCNCc1ccc(OCc2ccc(Cl)cc2Cl)cc1`: the EC50 is 9.8 µM.

For the molecule `COc1cc(/C=N/N=C(N)N)ccc1OCc1ccc(Cl)cc1`, the EC50 was 7.26 µM.

`CCN(CC)CCNc1nc(-c2ccc(OC)cc2)c(-c2ccc(OC)cc2)s1`: the EC50 is 22.3 µM.

For the molecule `CC(=O)NC(c1ccc(Cl)cc1Cl)c1ccc2cccnc2c1O` (stereo unspecified), the concentration for a half-maximal effect (EC50) was 7.25 µM.

Consider `CCCOc1ccc(C(=O)NNC(=S)NC(=O)c2ccco2)cc1`, for which the EC50 is 16.8 µM.

Turning to `Cc1nc2ccccn2c1C(=O)N/N=C/c1ccc([N+](=O)[O-])o1`, the EC50 is 13.9 µM.

As to `Cc1ccc(C(=O)N2C(=S)C(c3ccc(F)cc3)=NC23CCN(C)CC3)cc1`, the half-maximal effective concentration (EC50) was 16.7 µM.

As for `O=C1C=C(c2ccc(Cl)cc2)C(=O)N1Nc1ccccc1`, the EC50 is 5.96 µM.

Consider `O=C(C[n+]1cc(Br)cc2ccccc21)c1ccc(Cl)cc1`, for which the concentration for a half-maximal effect (EC50) is 44 µM.

Consider `CCCCc1ccc2[nH]cc(CCN)c2c1`, for which the half-maximal effective concentration (EC50) is 7.81 µM.

Consider `C#CCOCCOCCOCCNc1nc(N2CCN(C(=O)[C@H]([C@@H](C)CC)n3cc([C@@H](N)Cc4ccc(O)cc4)nn3)CC2)nc(N2CCN(C(=O)[C@H](Cc3cc4ccccc4[nH]3)n3cc([C@@H](N)CC(C)C)nn3)CC2)n1`, for which the EC50 was below 0.1 µM.

Turning to `CCCSc1nc2cc(OC)c(OC)cc2c(=N)n1CCCN1CCOCC1`, the concentration for a half-maximal effect (EC50) was 45.2 µM.

In the case of `Cc1cccc(NC(=O)C2CCCN2S(=O)(=O)c2ccc3c(c2)n(C)c(=O)c(=O)n3C)c1` (stereo unspecified), the EC50 was 11 µM.

Regarding `OCCN1CCN(C2CCC(c3ccc(F)cc3)c3ccc(F)cc32)CC1` (stereo unspecified), the concentration giving a half-maximal response (EC50) is 9.55 µM.

As to `CC(C)(C)c1ccc(OCCCNC2CCCC2)cc1`, the EC50 is 19.9 µM.

Turning to `COc1cccc(/C=N/NC(=O)CSCC(=O)Nc2ccccc2)c1O`, the EC50 was 5.26 µM.

As for `N=c1c2c(n(Cc3ccc(Cl)c(Cl)c3)c3c1CCC3)CCCC2`, the EC50 was 4.66 µM.

`COc1ccc(OCc2n(CC(=O)OC3CC(C)CCC3C(C)C)c3ccccc3[n+]2C)cc1` (stereo unspecified): the EC50 was 1.63 µM.

On to `CC(C)[C@@H](C(=O)NC1CCCC1)N1C(=O)N2CCc3c([nH]c4ccccc34)[C@@]2(C)C1=O`, for which the EC50 is 45.5 µM.

Consider `O=C(/C=C/c1ccccc1Cl)c1ccccc(=O)c1O`, for which the EC50 is 12.9 µM.

Regarding `O=C(NNC(=S)NC(=O)c1ccccc1)c1ccc(O)cc1`, the EC50 is 14.3 µM.

For the molecule `CN(C)CCCNc1cc(C(C)(C)C)nc2c(-c3ccc(Cl)cc3)cnn12`, the EC50 was 7.99 µM.

As to `CCOC(=O)c1nc(C)n(-c2cc(Cl)ccc2Cl)n1`, the EC50 is 14.9 µM.

As for `O=c1[nH][nH]c(-c2ccccc2O)c1C(C[N+](=O)[O-])c1ccc(Br)cc1` (stereo unspecified), the EC50 was 21.1 µM.

Turning to `CCN(CCNCC(O)COc1ccccc1C(C)C)c1cccc(C)c1` (stereo unspecified), the concentration for a half-maximal effect (EC50) was 11 µM.

For the molecule `Cn1c(CCN2CCN(c3ccccn3)CC2)nc2cc(NC(=O)COc3ccccc3)ccc21`, the EC50 is 22.1 µM.

Regarding `CN(C)CCOCCOc1ccc(Cl)c2ccccc12`, the EC50 is 48.3 µM.

With `O=C(CN1C2=NCCN2c2ccccc21)c1ccco1`, the EC50 is below 0.1 µM.

On to `CC1CC(=O)c2c(cc3c(-c4c(O)cc(O)c5c(O)c6c(cc45)OC(C)CC6=O)c(O)cc(O)c3c2O)O1` (stereo unspecified), for which the EC50 is below 0.1 µM.

In the case of `COc1ccc(CNCCC(c2ccccc2)c2ccc3c(c2)OCO3)cc1` (stereo unspecified), the half-maximal effective concentration (EC50) is 13.4 µM.

With `COc1ccc(/C=N/NC(=O)c2cc3c(OC)ccc(OC)c3[nH]2)cc1O`, the EC50 is 2.53 µM.

With `C#CCOCCOCCOCCNc1nc(N2CCN(C(=O)CCCCCCCCCCNC(=O)[C@H]([C@@H](C)CC)n3cc(CCCCN=C(N)N)nn3)CC2)nc(N2CCN(C(=O)CCCCCCCCCCNC(=O)[C@@H]([C@H](C)O)n3cc(C)nn3)CC2)n1`, the EC50 was 2.98 µM.

For the molecule `CCc1c(C)n([O-])c2c([n+]1=O)CCCCC2`, the EC50 is below 0.1 µM.

Turning to `CCOC(=O)N1CCN(Cc2cc(Cl)c3cccnc3c2O)CC1`, the EC50 is 3.12 µM.

Turning to `CC(NCC(O)COc1ccc2ccccc2c1)c1ccccc1` (stereo unspecified), the EC50 is 6.71 µM.

As for `COc1ccc2c(C(=O)CCl)c[nH]c2c1`, the EC50 is 11.2 µM.

For the molecule `NC1=NC[C@H](Cc2ccccc2)N1CCCCC1CCCCC1`, the EC50 was 3.5 µM.

As to `CC[C@@H](C)[C@H](CN[C@H](CNC)C(C)C)NC[C@@H](C)c1ccc(CC(C)C)cc1`, the EC50 is 5.96 µM.

Take `CCN(CC)C(=S)SSC(=S)N(CC)CC`: the 50% effective concentration (EC50) is 21.9 µM.

`CC1CCCC(NC(=O)COC(=O)CCSc2ccccc2)C1C` (stereo unspecified): the concentration giving a half-maximal response (EC50) was below 0.1 µM.

In the case of `O=C(CC(=O)c1c(F)cccc1Cl)c1ccccc1O`, the EC50 is 27.4 µM.

For the molecule `CCOC(=O)C1=C(O)c2ccccc2C(=O)/C1=C\c1ccc(C)cc1`, the EC50 is 23.3 µM.

On to `CCOc1ccc(/C=N/NC(=O)c2[nH]ncc2Br)c(O)c1`, for which the EC50 is 1.47 µM.

As for `CN(C)CCCN1c2ccccc2Sc2ccc(C(F)(F)F)cc21`, the EC50 was 14.6 µM.

With `O=C1c2ccccc2NC(c2ccc(-c3ccc(Br)cc3)o2)N1O` (stereo unspecified), the 50% effective concentration (EC50) is 10.6 µM.

With `CO[C@H]1C=CO[C@@]2(C)Oc3c(C)c(O)c4c(O)c(c5c(c4c3C2=O)NC2(CCN(CC(C)C)CC2)N=5)=NC(=O)C(C)=CC=C[C@H](C)[C@H](O)[C@@H](C)[C@@H](O)[C@@H](C)[C@H](OC(C)=O)[C@@H]1C`, the concentration giving a half-maximal response (EC50) is 26 µM.

As for `Oc1[nH]c2ccc(Br)cc2c1N=NC(=S)N1CCOCC1`, the 50% effective concentration (EC50) is 1.82 µM.

In the case of `Nc1c(Cl)ncnc1N/N=C/c1ccccn1`, the EC50 is 0.36 µM.

For the molecule `Cc1oc2c(O)c(O)ccc2c(=O)c1-c1ccccc1`, the concentration for a half-maximal effect (EC50) is 24.9 µM.

With `CC(=O)NNC(=S)NC(=O)c1ccccc1`, the EC50 was 44.8 µM.

For `S=C(Nc1ccc(Cl)c(Cl)c1)NC1CCN(Cc2ccccc2)CC1`, the EC50 is 10.7 µM.
